Laboratory results: US20220324851A1, “AMINE-SUBSTITUTED HETEROCYCLIC COMPOUNDS AS EHMT2 INHIBITORS, SALTS THEREOF, AND METHODS OF SYNTHESIS THEREOF” (Epizyme, Inc., priority 2017, published 2022)
Where a name gives a salt, the structure may show the parent alone.

Legend:
Assay type in all cases: physicochemical
[1] = DVS water uptake / hygroscopicity; settings: for hygroscopicity (in words): conclusion from DVS where run
[2] = XRPD before and after DVS (form change); settings: state of sample post DVS
[3] = stressing at 40° C./75% RH (form change)
[4] = appearance under ambient condition; settings: wet solid under ambient condition; not tested by TGA/DSC

| SMILES | water uptake (DVS) ([1]; at 25° C./80% RH) | hygroscopicity (in words) [1] | form change after DVS [2] | water uptake (DVS) ([1]; from 0% to 80% RH) | water uptake (DVS) ([1]; from 50% RH to 80% RH at 25° C.) | form change after stressing [3] | hygroscopicity (in words) [4] |
| --- | --- | --- | --- | --- | --- | --- | --- |
| CNc1cc(C)nc(Nc2cnc(OC)c(OC[C@@H]3CCN(C)C3)c2)n1 [Compound 1R Hydrochloride Salt Type A] | ~8% | hygroscopic | No change in XRPD pattern | – | – | – | – |
| CNc1cc(C2CCOCC2)c2cc(OC)c(OCCCN3CCCC3)cc2n1 [Compound 2 Freebase Type A] | – | slightly hygroscopic | No form change | around 1.0% | – | – | – |
| CNc1cc(C)nc(Nc2ccc(OC)c(CNCCN3CCCC3)c2)n1 [Compound 3 Freebase Type A] | – | hygroscopic | No form change | around 12.9% | – | – | – |
| CNc1cc(C)nc(Nc2ccc(OC)c(CNCCN3CCCC3)c2)n1 [Compound 3 Glycolate Salt Type B] | – | – | deliquescence | around 45.3% | – | – | – |
| CNc1cc(C)nc(Nc2ccc(OC)c(CNCCN3CCCC3)c2)n1 [Compound 3 Hydrochloride Salt Type A] | – | – | new hydrate form | – | – | – | – |
| CNc1cc(C)nc(Nc2ccc(OC)c(CNCCN3CCCC3)c2)n1 [Compound 3 Hydrochloride Salt Type B] | 15.3% | hygroscopic | change of XRPD pattern was observed | – | – | – | – |
| CNc1cc(C)nc(Nc2ccc(OC)c(CNCCN3CCCC3)c2)n1 [Compound 3 Sulfate Sate Type A] | 20.5% | highly hygroscopic | No significant form change | – | – | – | – |
| CNc1cc(C)nc(Nc2ccc(OC)c(OC[C@H](O)CN3CCCC3)c2)n1 [Compound 4R Freebase Type C] | – | hygroscopic | No form change | around 8.7% | – | – | – |
| CNc1cc(C)nc(Nc2ccc(OC)c(OC[C@H](O)CN3CCCC3)c2)n1 [Compound 4R Hydrochloride Salt Type A] | – | hygroscopic | change of XRPD pattern was observed | – | around 4% | – | – |
| CNc1cc(C)nc(Nc2ccc(OC)c(OC[C@H](O)CN3CCCC3)c2)n1 [Compound 4R Hydrochloride Salt Type B] | – | very hygroscopic | No form change | around 17.4% | – | – | – |
| CNc1cc(C)nc(Nc2ccc(OC)c(OC[C@H](O)CN3CCCC3)c2)n1 [Compound 4R Succinate Salt Type A] | – | hygroscopic | No form change | around 9.6% | – | – | – |
| CNc1cc(C)nc(Nc2ccc(OC)c(OC[C@H](O)CN3CCC3)c2)n1 [Compound 5R Fumarate Salt Type A] | 7.6% | hygroscopic | No significant form change | – | – | – | – |
| CNc1cc(C)nc(Nc2ccc(OC)c(OC[C@H](O)CN3CCC3)c2)n1 [Compound 5R Gentisate Salt Type E] | – | – | – | – | – | No form change | – |
| CNc1cc(C)nc(Nc2ccc(OC)c(OC[C@H](O)CN3CCC3)c2)n1 [Compound 5R Hippurate Salt Type A] | 2.6% | hygroscopic | No significant form change | – | – | – | – |
| CNCc1cnn(-c2cc(Nc3nc(C)cc(NC)n3)ccc2OC)c1 [Compound 6 Adipate Salt Type B] | – | hygroscopic | form change from Compound 6 Adipate Salt Type B to Compound 6 Adipate Salt Type A | around 8.8% | – | – | – |
| CNCc1cnn(-c2cc(Nc3nc(C)cc(NC)n3)ccc2OC)c1 [Compound 6 Glycolate Salt Type A] | – | – | – | – | – | – | high hygroscopicity |
| CNCc1cnn(-c2cc(Nc3nc(C)cc(NC)n3)ccc2OC)c1 [Compound 6 Hydrochloride Salt Type A] | – | very hygroscopic | Form change was observed | around 19.4% | – | – | – |
| CNCc1cnn(-c2cc(Nc3nc(C)cc(NC)n3)ccc2OC)c1 [Compound 6 freebase Type A] | – | hygroscopic | No form change | around 4.4% | – | – | – |
| CNCc1cnn(-c2c(OC)ccc(Nc3nc(C)cc(NC)n3)c2F)c1 [Compound 7 Fumarate Salt Type A] | – | low hygroscopicity | – | – | – | – | – |
| CNCc1cnn(-c2c(OC)ccc(Nc3nc(C)cc(NC)n3)c2F)c1 [Compound 7 Fumarate Salt Type C] | – | – | – | around 1.9% | – | – | – |
